Data taken from patent publication US20020103228A1, “Composition and method for use of pyridinium derivatives in cosmetic and therapeutic applications” (TORRENT PHARMACEUTICALS LTD., priority 1999, published 2002).
Values joined by “and” are separate entries in the source; they are usually repeats but may differ in a detail not shown here. Equal values may be shown once.

Experiments:
AGE-BSA = target: T1, AGE-BSA (Bos taurus, UniProt P02769); assay: In-vitro AGE breaking activity by ELISA; assay type: biochemical, Bovine; details: 37° C., 24 hours
T1 construct: Bovine serum albumin (fraction V) (BSA); from tissue; host or cells: bovine serum (fraction V); glycated in house with 1.6 M glucose at 37 °C for 16 weeks
T1 sequence (P02769 25-607): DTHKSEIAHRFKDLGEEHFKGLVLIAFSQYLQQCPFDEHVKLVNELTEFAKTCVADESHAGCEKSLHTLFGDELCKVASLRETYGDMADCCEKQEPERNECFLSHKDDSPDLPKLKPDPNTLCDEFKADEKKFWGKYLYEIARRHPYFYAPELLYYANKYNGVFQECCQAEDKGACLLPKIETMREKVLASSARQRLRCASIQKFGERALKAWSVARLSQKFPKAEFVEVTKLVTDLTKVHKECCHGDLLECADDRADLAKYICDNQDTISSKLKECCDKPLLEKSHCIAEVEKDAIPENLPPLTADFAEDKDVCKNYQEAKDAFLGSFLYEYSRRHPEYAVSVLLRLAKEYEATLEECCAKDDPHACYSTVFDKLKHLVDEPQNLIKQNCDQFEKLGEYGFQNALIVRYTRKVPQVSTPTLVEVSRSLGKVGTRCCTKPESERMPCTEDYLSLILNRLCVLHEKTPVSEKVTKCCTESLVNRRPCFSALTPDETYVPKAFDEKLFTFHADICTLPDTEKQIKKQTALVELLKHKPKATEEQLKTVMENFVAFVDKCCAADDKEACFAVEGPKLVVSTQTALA
Method: AGE breaking activity has been confirmed by the screening procedure as mentioned below:
Methods of experiment: Elisa (Enzyme Linked Immunosorbent Assay)
160 mg/ml of protein, bovine serum albumin, BSA and 1.6M glucose sugar were dissolved in phosphate buffered saline, PBS. Sodium azide was added at 0.02% concentration as a preservative. The solution was filtered asceptically through a […] filter and kept for aging at 37° C. for 16 weeks. After 16 weeks the solution was dialyzed against PBS, aliquoted and stored at −20° C.
To determine the AGE breaking activity, 10 μg/ml of the 16 weeks AGE-BSA was incubated with different concentrations of the test compounds at 37° C. for 24 hours and AGE breaking activity of the test compounds by ELISA was determined.
ELISA was performed as follows
1. Different concentrations of 16 weeks AGE-BSA were coated on a microtiter plate as standard. Each concentration is coated in triplicates.
2. The test samples were coated on microtiter plate at a concentration of 5 ng to 20 ng per well in triplicates
3. The plate was incubated at 37° C. for one hour.
4. After incubation the plate was washed with PBST (PBS with 0.05% Tween 20).
5. Blocking with 5% skimmed milk in PBS at 37° C. for one hour was done.
6. The plate was washed with PBST.
7. Primary antibody against AGE-BSA was added and the plate is incubated at 37° C. for one hour.
8. The plate was washed with PBST
9. Secondary antibody anti rabbit HRPO (Horse-Radish Per Oxidase) conjugate was added and the plate is incubated at 37° C. for one hour.
10. The plate was washed with PBST.
11. Colour development with OPD (orthophenylenediamine dihydrochloride) and hydrogen peroxide was done.
12. OD (optical density) at (450 nm reading-620 nm reading) was measured after incubation at 37° C. for 15 minutes with Microplate ELISA Reader
The breaker activity of the compounds were determined by the following formula: [formula]
OD450-620Control=Absorbance of 20 ng AGE-BSA after incubation at 37° C. for 24 hours without test compound
OD450-620Test=Absorbance of 20 ng AGE-BSA after incubation at 37° C. for 24 hours with required concentration of test compound
Using specific examples, the % AGE breaking activity was calculated and recorded in Table 2.

[1] = Free radical scavenging activity on ABTS radical cation; assay type: biochemical
Method: This method measures the relative ability of free radical scavenging substances to scavenge the ABTS^.+ i.e. 2,2-Azino-bis-(3-ethyl benzo thiazoline-6-sulfonate) radical cation as compared to a standard amount of standard or free radical scavengers antioxidants. Incubation of ABTS with Peroxidase (metmyoglobin) and hydrogen peroxide results in the production of radical cation ABTS^.+. This species is blue-green in colour and can be detected at 730 nm. Antioxidants or free radical scavengers in the added sample that causes suppression of the color to a degree that is proportional to their concentration.
Preparation of Buffer Solutions
A. Phosphate Citrate Buffer (pH 5.0). 48.5 ml of 0.1M citric acid with sufficient 0.2M disodium hydrogen phosphate to produce 100 ml.
B. Phosphate Buffer Saline (PBS): Dissolve 40.0 g of NaCl, 1.0 g of KCl, 1.0 g of KH2PO4 and 3.05 g of Na2HPO4 in 1 liter milli-Q water. Dilute 200 ml of above solution to 1 liter with milli-Q water (pH 7.4-7.6).
C. 3 μM stock solution of Peroxidase was prepared in phosphate buffer saline pH 7.4(PBS).
D. 1.08 mM stock solution of Hydrogen peroxide was prepared in phosphate buffer saline pH 7.4 (PBS).
Preparation of ABTS Stock Solution
1 tablet (10 mg) was dissolved in phosphate citrate buffer (pH 5.0).
Preparation of ABTS Working Solution
5.0 ml of ABTS stock solution was diluted with PBS to 20 ml.
Preparation of Horse Radish Peroxidase Stock Solution
320 μg of the enzyme was dissolved in 2.5 ml of PBS.
Preparation of Hydrogen Peroxide (1.08 mM) Solution
12 μl of Hydrogen Peroxide (30% w/v) was diluted to 100 ml with PBS. […]
Preparation of ABTS Radical Stock Solution
To 18 ml of ABTS stock solution, 100 μl of Horseradish Peroxidase stock solution was added.
As soon as 1.5 ml of hydrogen peroxide solution was added to the above solution, blue-green colour of the ABTS radicals appeared. This solution was incubated at 30° C. for 30 min.
Preparation of Control Solution
980 μl of ABTS radical stock solution was added to an eppendorf tube. To it was added 100 μl of various PBS solution.
Preparation of test Solution
980 μl of ABTS radical stock solutions were added to different eppendorf tubes. To it were added 100 μl of various concentrations of drug solution.
Measurement of Absorbance (O.D)
The absorbance of control and test samples was recorded immediately at 730 nm taking PBS as blank.
Calculation: The percent antioxidant activity was calculated according to the formula. % Antioxidant activity=[O.D of test sample/O.D of control*100]−100.

| Structure (SMILES) | % Breakage (AGE-BSA; 10 mM test compound) [%] | Relative Free Radical Scavenging Activity (%) on ABTS ([1]; 11.5 μM) [%] | Relative Free Radical Scavenging Activity (%) on ABTS ([1]; 23.0 μM) [%] | Relative Free Radical Scavenging Activity (%) on ABTS ([1]; 46.0 μM) [%] | Relative Free Radical Scavenging Activity (%) on ABTS ([1]; 92.5 μM) [%] | Relative Free Radical Scavenging Activity (%) on ABTS ([1]; 925 μM) [%] | % Breakage (AGE-BSA; 25 mM test compound) [%] | % Breakage (AGE-BSA; 1 mM test compound) [%] | % Breakage (AGE-BSA; 5 mM test compound) [%] | Relative Free Radical Scavenging Activity (%) on ABTS ([1]; 11.5 μM, listed as Compound No. 64, 11.5 µM) | Relative Free Radical Scavenging Activity (%) on ABTS ([1]; 23.0 μM, listed as Compound No. 64, 23 µM) | Relative Free Radical Scavenging Activity (%) on ABTS ([1]; 46.0 μM, listed as Compound No. 64, 46 µM) | Relative Free Radical Scavenging Activity (%) on ABTS ([1]; 92.5 μM, listed as Compound No. 64, 92.5 µM) |
| --- | --- | --- | --- | --- | --- | --- | --- | --- | --- | --- | --- | --- | --- |
| CCCCOC(=O)c1ccc[n+](CC(=O)Nc2ccccc2)c1.[Cl-] [Compound 93, 1-(2-Phenylamino-2-oxoethyl)-3-(n-butyloxycarbonyl)pyridinium chloride] | 57 | 8.5 | 8.6 | 9.6 | 11.4 | 25.0 |  |  |  |  |  |  |  |
| CS(=O)(=O)NNC(=O)c1ccc[n+](CC(=O)c2ccc(Cl)s2)c1.[Br-] [Compound 55, 1-(2-(5-chlorothien-2-yl)-2-oxoethyl)-3-(methanesulfonyl hydrazinocarbonyl)pyridinium bromide] | 40.85 | 46.47 | 84.97 | 99.50 | 99.93 |  |  |  |  |  |  |  |  |
| O=C(NCCO)c1ccc[n+](CC(=O)c2cccs2)c1.[Br-] [Compound 90, 1-(2-Thien-2′-yl-2-oxoethyl)-3-((2-hydroxyethyl)aminocarbonyl)pyridinium bromide] | 50 | 47.8 | 58.8 | 78.2 | 99.5 | 100 |  |  |  |  |  |  |  |
| CCOC(=O)NNC(=O)c1ccc[n+](CC(=O)c2cccs2)c1.[Br-] [Compound 54, 1-(2-thien-2′-yl-2-oxoethyl)-3-(ethoxycarbonyl hydrazinocarbonyl)pyridinium bromide] | 33.43 | 5.22 | 15.45 | 46.82 | 77.07 |  |  |  |  |  |  |  |  |
| CC(C)S(=O)(=O)NNC(=O)c1ccc[n+](CC(=O)c2cccs2)c1.[Br-] [Compound 50, 1-(2-thien-2′-yl-2-oxoethyl)-3-(isopropylsulfonyl hydrazinocarbonyl)pyridinium bromide] | 31.45 | 3.30 | 23.06 | 54.95 | 89.31 |  |  |  |  |  |  |  |  |
| O=C(NNS(=O)(=O)C(F)(F)F)c1ccc[n+](CC(=O)c2cccs2)c1.[Br-] [Compound 68, 1-(2-thien-2′-yl-2-oxoethyl)-3-(trifluoromethanesulfonyl hydrazinocarbonyl)-pyridinium bromide] | 92.64 | 38.47 | 43.54 | 89.32 | 95.07 |  |  |  |  |  |  |  |  |
| COCCOC(=O)c1ccc[n+](CC(=O)c2ccc(Cl)cc2Cl)c1.[Br-] [Compound 22, 1-(2-(2′,4′-dichlorophenyl)-2-oxoethyl)-3-(2(methoxy)ethyloxycarbonyl)pyridinium bromide] | 13 | 27.9 | 50.9 | 69.3 | 79.7 | 100 | 41 |  |  |  |  |  |  |
| CS(=O)(=O)NNC(=O)c1ccc[n+](CC(=O)N2CCC(Cc3ccccc3)CC2)c1.[Cl-] [Compound 51, 1-(2-(4-benzylpiperidin-1-yl)-2-oxoethyl)-3-(methanesulfonyl hydrazinocarbonyl)pyridinium chloride] | 20.94 | 0.00 | 21.64 | 52.82 | 83.94 |  |  |  |  |  |  |  |  |
| NC(=O)c1cc(C(=O)NNC(=O)c2ccc[n+](CC(=O)c3cccs3)c2)c[n+](CC(=O)c2cccs2)c1.[Cl-].[Cl-] [Compound 60, 1-[1-(2-thien-2′-yl-2-oxoethyl)-5-aminocarbonyl-3-carbonylpyridinium]-2-[1-(2-Thien-2′-yl-2-oxoethyl)-3-carbonylpyridinium]hydrazine dichloride] |  | 44.1 | 59.8 | 69.4 | 99.9 | 100 |  | 95.36 |  |  |  |  |  |
| COCCNC(=O)c1ccc[n+](CC(=O)c2ccc(Cl)cc2Cl)c1.[Br-] [Compound 38, 1-(2′,4′-dichlorophenyl-2-oxoethyl)-3-(2-methoxyethylaminocarbonyl)-pyridinium bromide] |  | 47.2 | 54.8 | 71.0 | 89.5 | 100 |  |  | 17.66 |  |  |  |  |
| CS(=O)(=O)NNC(=O)c1ccc[n+](CC(=O)c2cc([N+](=O)[O-])cs2)c1.[Br-] [Compound 64, 1-(2-(4-nitrothien-2-yl)-2-oxoethyl)-3-(methanesulfonyl hydrazinocarbonyl)pyridinium bromide] | 60.94 |  |  |  |  | 100 |  |  |  | 41.8% and 26.01% | 55.7% and 57.39% | 72.2% and 99.30% | 99.0% and 99.62% |
| CS(=O)(=O)NNC(=O)c1ccc[n+](CC(=O)c2ccc([N+](=O)[O-])s2)c1.[Cl-] [Compound 67] |  | 13.11 | 50.70 | 97.46 | 99.43 |  |  | 42.01 |  |  |  |  |  |
